Data taken from patent publication US9512176B2, “Age inhibitors” (Centre National de la Recherche Scientifique, priority 2005, dated 2016).
Non-standard residues stand in square brackets, D forms with d. Residues, ends and D or L forms follow the SMILES beside them. Dap = NC[C@H](N)C(=O)O

Tests used:
[1] = tested on: ribonuclease A; test: Enzymatic activity of ribonuclease A after treatment with methylglyoxal and inhibitors (methylene blue RNA staining); assay type: biochemical; details: ribonuclease A treated with methylglyoxal (MG) + inhibitor in equimolar quantity, 37° C.; control RNase 100, RNase + methylglyoxal 10.11%
Procedure: (§1) Ribonuclease A and lysozyme (10 mg/ml) are incubated in the presence of methylglyoxal (10 mM) or in the presence of methylglyoxal and one of the inhibitors according to the present invention in an equimolar quantity at 37° C. After 48 hours of incubation, the proteins are analyzed by polyacrylamide gel electrophoresis (8%-16% SDS PAGE gel).
The enzymatic activity of ribonuclease A after treatment with methylglyoxal and the various inhibitors according to the present invention is measured using the methylene blue RNA staining technique of Greiner-Stöffele et al. (Anal. Biochem. (1996) 240, 24).

[2] = tested on: EA.hy 926 cell line; test: Growth of EA.hy 926 endothelial cells with MG scavengers and/or methylglyoxal (MTT); assay type: cell-based, human
Procedure: The cells used for the test are from the EA.hy 926 cell line, which are endothelial cells obtained by the hybridization of human umbilical vein endothelial cells (HUVECs) with lung cancer cells (A549). The EA.hy 926 endothelial cells are incubated in Dulbecco's modified Eagle's Medium (DMEM) enriched with 10% fetal calf serum. The cells are incubated in 12-well plates. Each well initially contains 100,000 cells. Cell growth is achieved by incubating the cells in 2 ml of culture medium after adding or not adding the various potential inhibitors (1 mM) and/or methylglyoxal (600 μM) for 48 hours at 37° C. in a moist atmosphere with 5% CO2.
The number of cells is evaluated in the following way:
The cells are stained using the (4,5-dimethylthiazol-2-yl)-2,5-diphenyltetrazolium bromide (MTT) assay. MTT penetrates in the cell where it is converted into formazan. The quantity of formazan formed is proportional to the number of living cells.
The results are expressed as a relative percentage of the number of cells after treatment compared to the number of control cells without treatment [100*OD (treated cells)/OD (control cells)]. Detection is carried out by UV/visible spectrophotometry at 570 nm.
Principle: MTT (yellow) penetrates the cell and is converted into an insoluble blue compound, formazan, by cleavage of its tetrazolium rings by the mitochondrial dehydrogenase enzymes of living cells. Formazan is solubilized by isopropanol. The number of cells is proportional to the quantity of formazan formed and its absorbance.

[3] = tested on: seven strains of Salmonella (six mixed strains, strain TA98); test: Ames test with and without human liver S9 fractions; assay type: cell-based; parameters: key to Six mixed strains / Strain TA98: −: non-mutagenic; +: mutagenic; details: for Six mixed strains / Strain TA98: mixture with methylglyoxal, 10/1/0.1 μM
Procedure: An Ames test was performed with L-DAPA-L-Leu (example 1) and L-DAPA-L-Val (example 23) alone and in combination with methylglyoxal on human liver S9 fractions and on seven strains of Salmonella.
The concentrations used in the Ames test were as follows: • L-DAPA-L-Leu alone or L-DAPA-L-Val alone: 10 μM, 1 μM and 0.1 μM. • L-DAPA-L-Leu/methylglyoxal mixture or L-DAPA-L-Val/methylglyoxal mixture: 10 μM, 1 μM and 0.1 μM. • Methylglyoxal: 10 μM.

[4] = tested on: ribonuclease A; test: SDS PAGE electrophoresis of ribonuclease A incubated with methylglyoxal and inhibitor; assay type: biochemical; details: ribonuclease A 10 mg/ml, methylglyoxal 10 mM, inhibitor equimolar, 37° C., 48 hours
Procedure: as §1
The AGE inhibitors according to the present invention, namely L-DAPA-L-Leu (example 1) and L-DAPA-L-Ile (example 18), or AG (10 mM) are incubated with MG and ribonuclease A for […] at 37° C.

[5] = tested on: glyoxalase I; test: Glyoxalase I treated with methylglyoxal: non-denaturing electrophoresis and enzymatic activity; assay type: biochemical
Procedure: MG reacts with a protein's lysine and arginine residues, thus altering the charges on the modified polypeptide. […] The exposure of glyoxalase I to MG (10 mM) for 24 hours increases the mobility of the protein toward the positive electrode, a change that is consistent with the loss of positive charges from the ε-amino and guanidino groups and the gain of negative charges.
The incubation of glyoxalase I, a key protein in the α-oxoaldehyde detoxification system, in the presence of methylglyoxal, modifies the protein. This modification causes a change in charge and a 50% decrease in enzymatic activity compared to the control.

[6] = tested on: RNase A; test: RNase A modifications induced by methylglyoxal (HPLC); assay type: biochemical; details: RNase A 0.08 mM, methylglyoxal 32 mM, compound 38 mM, 21 hours at 37° C.
Procedure: FIGS. 11 to 13 present the results obtained by HPLC for three compounds according to the present invention, L-DAPA-L-Ile (example 18), L-DAPA-L-Val (example 23) and L-DAPA-L-Leu (example 1), on RNase A modifications induced by methylglyoxal. HPLC conditions are as follows: C-18, Symmetry 300 (4.6×250 mm) column, injection volume 100 μl of reaction mixture diluted to 1/10; flow 1 ml/min; temperature 40° C.; solvent A: H2O+0.1% TFA; solvent B: 60/40 CH3CN/H2O+0.1% TFA; linear gradient of 20% B to 80% B in 20 minutes; detection: UV at 215 nm: PDA (chromatograms extracted at 215 nm).

SMILES: CC(C)C[C@H](NC(=O)[C@@H](N)CN)C(=O)O [example 1, L-DAPA-L-Leu.2HCl] (H-[Dap]-Leu-OH)
- Enzymatic activity (%) [1]: 93.91%
- cell survival when incubated with MG [2]: 81%
- viability at 1000 µM ([2]; Homo sapiens, EA.hy 926, scavenger 1 mM + methylglyoxal 600 μM, 48 hours, relative to untreated control cells, MG alone 24, mean of 3 experiments, read-out: Cells + MG scavengers + Methylglyoxal (B)): 81%
- Difference (B) − (A) ([2]; Table 2, cells with scavenger + MG minus cells with scavenger alone): −13
- Cells + MG scavengers (A) ([2]; scavenger 1 mM, no methylglyoxal, 48 hours, number of cells relative to untreated control cells, mean of 3 experiments): 94%
- effect against suppression of cell growth by MG ([2]; scavenger + methylglyoxal): same trend
- difference between number of cells growing with compound and with MG and compound ([2]; values in brackets): −13
- Six mixed strains ([3]; Human S9: No): −
- Strain TA98 ([3]; Human S9: No): −
- Six mixed strains ([3]; Human S9: Yes (metabolites)): −
- Strain TA98 ([3]; Human S9: Yes (metabolites)): −
- mutagenicity ([3]; alone or in combination with methylglyoxal, TA98, mixed strains, human liver S9 fractions): neither substance (L-DAPA-L-Leu or L-DAPA-L-Val) was mutagenic
- protection from structural modifications (dimer form) caused by methylglyoxal [4]: provides protection
- gain of negative charge of glyoxalase I exposed to MG ([5]; MG 10 mM, 24 hours, non-denaturing electrophoresis): inhibits the gain of negative charge
- inhibition of glyoxalase I enzymatic activity and structural modification by methylglyoxal ([5]; MG alone: 50% decrease in enzymatic activity): prevents the inhibition exerted by methylglyoxal and protects against structural modifications
- RNase A modifications induced by methylglyoxal [6]: prevent the modifications to RNase A
